Data from publication PMC5986797, “Laminin heparin-binding peptides bind to several growth factors and enhance diabetic wound healing” (Nature Communications, 2018).

System: full-thickness back-skin wounds in db/db mice
Assay: Retention of VEGF-A165 at the wound site
Type: in vivo, mouse
Details: 3 days after treatment, fibrin matrix with 200 ng/wound VEGF-A165 and 2 µM peptide vs without peptide, ELISA
Experimental: Ten C57BLKS/J-m/Lepr db (db/db) mice (The Jackson laboratory) aged 10–11 weeks were used. Their backs were shaved and four full-thickness punch-biopsy wounds (6 mm in diameter) were created in each mouse. Directly after, fibrin matrices [80 µL in total, fibrinogen (10 mg/mL), 2 U/mL human thrombin, 4 U/mL factor XIII, 5 mM calcium chloride, 2 µM α2PI1–8-LAMA3_3043–3067, and 200 ng of recombinant human VEGF-A165] were polymerized on the wounds. To avoid drying of the matrices, the wounds were covered with non-adhering dressing (Adaptic, Johnson&Johnson), and then with adhesive film dressing (Hydrofilm, Hartmann). After 3 or 6 days, mice were sacrificed. The wounds were punched again, in order to recover the fibrinous matrices. Moreover, the tissue surrounding the wounds (2 mm beyond the wound margin) was removed. The tissue was transferred in 0.9 mL of tissue T-PER Tissue Protein Extraction Reagent (Thermo Scientific) containing 1 mg/mL of collagenase IV (Sigma-Aldrich), and homogenized with a tissue homogenizer. […] Recombinant human VEGF-A165 remaining in the fibrinous matrix and in the tissue surrounding the wound was quantified by ELISA (DuoSet, R&D Systems), using 200 ng of recombinant human VEGF-A165 as 100%. […]

NQEQVSPLRLVFALGTDGKKLRIKSKEKCNDGK [α2PI1–8-LAMA3_3043–3067]
amount of VEGF-A165 remaining in the wounds: significantly enhanced
